Reference: US11725000B2, “Apoptosis inhibitors” (National Institute of Biological Sciences, Beijing, priority 2017, dated 2023)

test system: U2OS_Bim cells; test: Apoptosis inhibition assay (Bim-induced apoptosis, cell viability by ATP level); type: cell-based; settings: U2OS_Bim cells; estimated (*Est.) / preliminary results; numbering of Tables 4a/4b; read-out: EC50
Procedure, shortened: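 Apoptosis was triggered by doxycycline (0.1 μg/mL) induction of Bim, one hour after compound addition to U2OS_Bim cells. Survival was measured after 24 h from cellular ATP (CellTiter-Glo), relative to DMSO, with zVAD at 20 μM as rescue control. Data are duplicate means, some estimated from preliminary results.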

Structure (SMILES)	EC50
Cc1cc(-c2cc(F)c(=O)n(Cc3ccnc(CCO)c3)c2)nc(S(=O)(=O)CCC(OCc2ccccc2F)c2ccccc2)n1 (centres unmarked) [Compound 360]	1 to 1000 nM
Cc1cc(-c2cc(F)c(=O)n(Cc3ccnc(N(C)CO)c3)c2)nc(S(=O)(=O)CCC(OCc2ccccc2F)c2ccccc2)n1 (centres unmarked) [Compound 361]	1 to 1000 nM
Cc1cc(-c2cc(F)c(=O)n(Cc3ccc4c(c3)OCO4)c2)nc(S(=O)(=O)CCCN2C(=O)Cc3ccccc32)n1 [Compound 362]	1 to 1000 nM
Cc1cc(-c2cc(F)c(=O)n(Cc3ccc4nnn(C)c4c3)c2)nc(S(=O)(=O)CCCN2C(=O)Cc3ccccc32)n1 [Compound 363]	1 to 1000 nM
Cc1cc(-c2cc(F)c(=O)n(Cc3ccc4c(c3)OCO4)c2)nc(S(=O)(=O)CCCC(=O)NC23CC4CC(CC(C4)C2)C3)n1 [Compound 364]	1 to 1000 nM
Cc1cc(-c2cc(F)c(=O)n(Cc3ccc4nnn(C)c4c3)c2)nc(S(=O)(=O)CCCC(=O)NC23CC4CC(CC(C4)C2)C3)n1 [Compound 365]	1 to 1000 nM
Cc1cc(-c2cc(F)c(=O)n(Cc3ccc4c(c3)OCO4)c2)nc(S(=O)(=O)CCCn2c(=O)oc3ccccc32)n1 [Compound 366]	1 to 1000 nM
Cc1cc(-c2cc(F)c(=O)n(Cc3ccc4nnn(C)c4c3)c2)nc(S(=O)(=O)CCCn2c(=O)oc3ccccc32)n1 [Compound 367]	1 to 1000 nM
Cc1cc(-c2ccc(=O)n(Cc3ccc4c(c3)OCCO4)n2)nc(S(=O)(=O)CCC(OCc2ccccc2F)c2ccccc2)n1 (centres unmarked) [Compound 368]	1 to 1000 nM

Now from value to molecule:

EC50	Structure (SMILES)
1 to 1000 nM	Cc1cc(-c2cc(F)c(=O)n(Cc3ccc4nnn(C)c4c3)c2)nc(S(=O)(=O)CCCn2cnc3ccccc32)n1 [Compound 337, 5-(2-((3-(1H-benzo[d]imidazol-1-yl)propyl)sulfonyl)-6-methylpyrimidin-4-yl)-3-fluoro-1-((1-methyl-1H-benzo[d][1,2,3]triazol-6-yl)methyl)pyridin-2 (1H)-one]
1 to 1000 nM	Cc1cc(-c2cc(F)c(=O)n(Cc3ccc4c(c3)OCO4)c2)nc(S(=O)(=O)CCCn2cnc3ccccc32)n1 [Compound 338, 5-(2-((3-(1H-benzo[d]imidazol-1-yl)propyl)sulfonyl)-6-methylpyrimidin-4-yl)-1-(benzo[d][1,3]dioxol-5-ylmethyl)-3-fluoropyridin-2 (1H)-one]
1 to 1000 nM	Cc1cc(-c2cc(F)c(=O)n(Cc3cccc(N(C)C)c3)c2)nc(S(=O)(=O)CCC(OCc2ccccc2F)c2ccccc2)n1 (centres unmarked) [Compound 339]
1 to 1000 nM	Cc1cc(-c2cc(F)c(=O)n(Cc3ccn4ccnc4c3)c2)nc(S(=O)(=O)CCC(OCc2ccccc2F)c2ccccc2)n1 (centres unmarked) [Compound 340]
1 to 1000 nM	Cc1cc(-c2cc(F)c(=O)n(Cc3ccc4[nH]c(=O)[nH]c4c3)c2)nc(S(=O)(=O)CCC(OCc2ccccc2F)c2ccccc2)n1 (centres unmarked) [Compound 341]
1 to 1000 nM	Cc1cc(-c2cc(F)c(=O)n(Cc3ccc4c(c3)n(C)c(=O)n4C)c2)nc(S(=O)(=O)CCC(OCc2ccccc2F)c2ccccc2)n1 (centres unmarked) [Compound 342]
1 to 1000 nM	Cc1cc(-c2cc(F)c(=O)n(Cc3ccc4cn(C)nc4c3)c2)nc(S(=O)(=O)CCC(OCc2ccccc2F)c2ccccc2)n1 (centres unmarked) [Compound 343]
1 to 1000 nM	Cc1cc(-c2cc(F)c(=O)n(Cc3ccc4c(c3)NC(=O)CO4)c2)nc(S(=O)(=O)CCC(OCc2ccccc2F)c2ccccc2)n1 (centres unmarked) [Compound 344]
1 to 1000 nM	Cc1cc(-c2cc(F)c(=O)n(Cc3ccc4[nH]c(=O)c(=O)[nH]c4c3)c2)nc(S(=O)(=O)CCC(OCc2ccccc2F)c2ccccc2)n1 (centres unmarked) [Compound 345]
1 to 1000 nM	Cc1cc(-c2cc(F)c(=O)n(Cc3ccc4c(c3)NCCN4)c2)nc(S(=O)(=O)CCC(OCc2ccccc2F)c2ccccc2)n1 (centres unmarked) [Compound 346]
1 to 1000 nM	Cc1cc(-c2cc(F)c(=O)n(Cc3ccc4c(c3)N(C)CCN4C)c2)nc(S(=O)(=O)CCC(OCc2ccccc2F)c2ccccc2)n1 (centres unmarked) [Compound 347]
1 to 1000 nM	Cc1cc(-c2cc(F)c(=O)n(Cc3ccc4ccn(C)c4c3)c2)nc(S(=O)(=O)CCC(OCc2ccccc2F)c2ccccc2)n1 (centres unmarked) [Compound 348]
1 to 1000 nM	Cc1cc(-c2cc(F)c(=O)n(Cc3ccc4ccn(C)c4c3)c2)nc(S(=O)(=O)CCC(OCc2ccccc2F)c2ccccc2)n1 (centres unmarked) [Compound 349]
1 to 1000 nM	Cc1cc(-c2cc(F)c(=O)n(Cc3ccc4c(c3)CC(=O)N4)c2)nc(S(=O)(=O)CCC(OCc2ccccc2F)c2ccccc2)n1 (centres unmarked) [Compound 350]
1 to 1000 nM	Cc1cc(-c2cc(F)c(=O)n(Cc3ccc4c(c3)CC(=O)N4C)c2)nc(S(=O)(=O)CCC(OCc2ccccc2F)c2ccccc2)n1 (centres unmarked) [Compound 351]
1 to 1000 nM	Cc1cc(-c2cc(F)c(=O)n(Cc3ccc4c(c3)CCN4C)c2)nc(S(=O)(=O)CCC(OCc2ccccc2F)c2ccccc2)n1 (centres unmarked) [Compound 352]
1 to 1000 nM	Cc1cc(-c2cc(F)c(=O)n(Cc3ccc4c(c3)OCN4C)c2)nc(S(=O)(=O)CCC(OCc2ccccc2F)c2ccccc2)n1 (centres unmarked) [Compound 353]
1 to 1000 nM	Cc1cc(-c2cc(F)c(=O)n(Cc3ccc4c(c3)N(C)CO4)c2)nc(S(=O)(=O)CCC(OCc2ccccc2F)c2ccccc2)n1 (centres unmarked) [Compound 354]
1 to 1000 nM	Cc1cc(-c2cc(F)c(=O)n(Cc3ccc4c(c3)CCCO4)c2)nc(S(=O)(=O)CCC(OCc2ccccc2F)c2ccccc2)n1 (centres unmarked) [Compound 355]
1 to 1000 nM	Cc1cc(-c2cc(F)c(=O)n(Cc3ccc4c(c3)N(C)CCO4)c2)nc(S(=O)(=O)CCC(OCc2ccccc2F)c2ccccc2)n1 (centres unmarked) [Compound 356]
1 to 1000 nM	Cc1cc(-c2cc(F)c(=O)n(Cc3ccc4c(c3)OCCN4C)c2)nc(S(=O)(=O)CCC(OCc2ccccc2F)c2ccccc2)n1 (centres unmarked) [Compound 357]
1 to 1000 nM	Cc1cc(-c2cc(F)c(=O)n(Cc3ccc4c(c3)OCCN4)c2)nc(S(=O)(=O)CCC(OCc2ccccc2F)c2ccccc2)n1 (centres unmarked) [Compound 358]
1 to 1000 nM	Cc1cc(-c2cc(F)c(=O)n(Cc3ccc4c(c3)NCCO4)c2)nc(S(=O)(=O)CCC(OCc2ccccc2F)c2ccccc2)n1 (centres unmarked) [Compound 359]

same assay, conditions: U2OS_Bim cells; means of duplicates; numbering of Tables 4a/4b; read-out: EC50

EC50	Structure (SMILES)
1 to 1000 nM	Cc1cc(-c2cc(F)c(=O)n(Cc3ccc4c(c3)no[n+]4[O-])c2)nc(S(=O)(=O)CCC(OCc2ccccc2F)c2ccccc2)n1 (centres unmarked) [Compound 323]
1000 to 10000 nM	COc1ccc(Cn2cc(-c3cc(C)nc(S(C)(=O)=O)n3)cc(F)c2=O)cc1OC [Compound 324, 1-(3,4-dimethoxybenzyl)-3-fluoro-5-(6-methyl-2-(methylsulfonyl)pyrimidin-4-yl)pyridin-2 (1H)-one]
1000 to 10000 nM	Cc1cc(-c2c[nH]c(=O)c(F)c2)nc(S(=O)(=O)CCC(OCc2ccccc2F)c2ccccc2)n1 (centres unmarked) [Compound 325, 3-fluoro-5-(2-(3-(2-fluorobenzyloxy)-3-phenylpropylsulfonyl)-6-methylpyrimidin-4-yl)pyridin-2 (1H)-one]
1 to 1000 nM	Cc1cc(-c2cc(F)c(=O)n(Cc3ccc4scnc4c3)c2)nc(S(=O)(=O)CCC(OCc2ccccc2F)c2ccccc2)n1 (centres unmarked) [Compound 326, 1-(benzo[d]thiazol-5-ylmethyl)-3-fluoro-5-(2-(3-(2-fluorobenzyloxy)-3-phenylpropylsulfonyl)-6-methylpyrimidin-4-yl)pyridin-2 (1H)-one]
1 to 1000 nM	Cc1cc(-c2cc(F)c(=O)n(Cc3ccc4c(cnn4C)c3)c2)nc(S(=O)(=O)CCC(OCc2ccccc2F)c2ccccc2)n1 (centres unmarked) [Compound 327, 3-fluoro-5-(2-(3-(2-fluorobenzyloxy)-3-phenylpropylsulfonyl)-6-methylpyrimidin-4-yl)-1-((1-methyl-1H-indazol-5-yl)methyl)pyridin-2 (1H)-one]
< 100000 nM	Cc1cc(-c2cnc(OCc3ccc4c(cnn4C)c3)c(F)c2)nc(S(=O)(=O)CCC(OCc2ccccc2F)c2ccccc2)n1 (centres unmarked) [Compound 328, 5-((3-fluoro-5-(2-(3-(2-fluorobenzyloxy)-3-phenylpropylsulfonyl)-6-methylpyrimidin-4-yl)pyridin-2-yloxy)methyl)-1-methyl-1H-indazole]
1 to 1000 nM	Cc1cc(-c2cc(F)c(=O)n(Cc3ccc4ocnc4c3)c2)nc(S(=O)(=O)CCC(OCc2ccccc2F)c2ccccc2)n1 (centres unmarked) [Compound 329, 1-(benzo[d]oxazol-5-ylmethyl)-3-fluoro-5-(2-((3-((2-fluorobenzyl)oxy)-3-phenylpropyl)sulfonyl)-6-methylpyrimidin-4-yl)pyridin-2 (1H)-one]
1 to 1000 nM	Cc1cc(-c2cc(F)c(=O)n(Cc3ccc4c(c3)OCCO4)c2)nc(S(=O)(=O)CCC(OCc2ccccc2F)c2ccccc2)n1 (centres unmarked) [Compound 331, 1-((2,3-dihydrobenzo[b][1,4]dioxin-6-yl)methyl)-3-fluoro-5-(2-(3-(2-fluorobenzyloxy)-3-phenylpropylsulfonyl)-6-methylpyrimidin-4-yl)pyridin-2 (1H)-one]
1 to 1000 nM	C#CCOc1cc(Cn2cc(-c3cc(C)nc(S(=O)(=O)CCC(OCc4ccccc4F)c4ccccc4)n3)cc(F)c2=O)ccc1OC (centres unmarked) [Compound 332, 3-fluoro-5-(2-((3-((2-fluorobenzyl)oxy)-3-phenylpropyl)sulfonyl)-6-methylpyrimidin-4-yl)-1-(4-methoxy-3-(prop-2-yn-1-yloxy)benzyl)pyridin-2 (1H)-one]
1 to 1000 nM	Cc1cc(-c2cc(F)c(=O)n(Cc3ccc4c(c3)OCO4)c2)nc(S(=O)(=O)CCC(Oc2cccnc2)c2ccccc2)n1 (centres unmarked) [Compound 333, 1-(benzo[d][1,3]dioxol-5-ylmethyl)-3-fluoro-5-(6-methyl-2-((3-phenyl-3-(pyridin-3-yloxy)propyl)sulfonyl)pyrimidin-4-yl)pyridin-2 (1H)-one]
1000 to 10000 nM	CS(=O)(=O)c1nc(CF)cc(-c2cc(F)c(=O)n(Cc3ccc4c(c3)OCO4)c2)n1 [Compound 334, 1-(benzo[d][1,3]dioxol-5-ylmethyl)-3-fluoro-5-(6-(fluoromethyl)-2-(methylsulfonyl)pyrimidin-4-yl)pyridin-2 (1H)-one]
1 to 1000 nM	O=c1c(F)cc(-c2cc(CF)nc(S(=O)(=O)CCC(OCc3ccccc3F)c3ccccc3)n2)cn1Cc1ccc2c(c1)OCO2 (centres unmarked) [Compound 335, 1-(benzo[d][1,3]dioxol-5-ylmethyl)-3-fluoro-5-(2-((3-((2-fluorobenzyl)oxy)-3-phenylpropyl)sulfonyl)-6-(fluoromethyl)pyrimidin-4-yl)pyridin-2 (1H)-one]
